Key:
Format in all cases: cell-based
31009 = assay: Inhibition of ATL cell proliferation (tritiated thymidine incorporation); details: Homo sapiens, 24 hours, read-out: PERCENT INHIBITION OF ATL CELL PROLIFERATION
Description: (§1) ATL cell lines were established according to known literature procedures. ATL5S, ATL3I, and ATL1K were established according to the method of Hoshino [Proc. Natl. Acad. Sci, 80: 6061(1983)]. The cell lines 31008, 31009, 31016 and AT(EGG) were established from peripheral blood of HTLV-1 infected individuals via co-culture with cord blood lymphocytes. The cell line MALN was isolated from lymphoid tumor tissue of an HTLV-1 infected ATL patient seen at Jackson Memorial/University of Miami Medical Center. [Harrington, W.J., Jr., J. Acq. Imm. Def. Dis., 4: 284 (1991)]. The primary cultures BL and GP were initiated from peripheral blood of ATL patients. The MALN, BL, and GP cell lines were initiated without co-cultivation.
(§2) Cells were adjusted to a concentration of 1x10⁶ cells/mL in RPMI 1640 with 15% fetal bovine serum and were supplemented with 50 U/mL penicillin, 50 µg/mL streptomycin, and 2 mM glutamine. […] Drug concentrations evaluated ranged from 1µM to 100 fM. Cultures were incubated at 37°C, 5% CO₂ for 24 hours followed by a 4 hr. pulse with 0.5 µCi of tritiated thymidine. Thymidine incorporation was measured by liquid scintillation counting, and the results expressed in counts per minute (cpm).

ATL5S = assay: as above; details: Homo sapiens, 24 hours, read-out: PERCENT INHIBITION OF ATL CELL PROLIFERATION
Description: as §1, §2

[1] = tested on: ten human HTLV-1 transformed T-cell lines; assay: Inhibition of ATL cell proliferation, summary over the panel of ten cell lines; details: in 4 of the cell lines at a concentration of 1 nM, read-out: reduction in proliferation
Protocol: (§3) The effect of rapamycin on ATL was established in an in vitro standard pharmacological test procedure using ten human HTLV-1 transformed T-cell lines cultured from ATL patients. These cell lines are presently the best models for ATL in humans. Cyclosporin A (CsA) was also evaluated for the purpose of comparison. The procedure used and results obtained are described below.
as §1, with “The MALN, BL, and GP cell lines were initiated without co-cultivation.” left out
as §2, with “Cultures were incubated at 37°C, 5% CO₂ for 24 hours followed by a 4 hr. pulse with 0.5 µCi of tritiated thymidine.” left out, “(cpm). […]” for “(cpm).”

ATL3I = assay: Inhibition of ATL cell proliferation (tritiated thymidine incorporation); details: Homo sapiens, 24 hours, read-out: PERCENT INHIBITION OF ATL CELL PROLIFERATION
Protocol: as §3, §1
as §2, with “(cpm). The results obtained from the mean of four evaluations at each concentration were compared with control values to determine percent inhibition. The following formula was used to calculate the percent inhibition: Percent Inhibition =(cpm[no drug] - cpm[drug])/(cpm[no drug])x 100 [formula] The percent inhibition obtained with rapamycin is shown in the following table.” for “(cpm).”

ATEGG = assay: as above; details: Homo sapiens, 24 hours, read-out: PERCENT INHIBITION OF ATL CELL PROLIFERATION
Protocol: as §3, §1
as §2, with “(cpm). The results obtained from the mean of four evaluations at each concentration were compared with control values to determine percent inhibition. The following formula was used to calculate the percent inhibition: Percent Inhibition =(cpm[no drug] - cpm[drug])/(cpm[no drug])x 100 [formula] The percent inhibition obtained with rapamycin is shown in the following table.” for “(cpm).”

MALN = assay: as above; details: Homo sapiens, 24 hours, read-out: PERCENT INHIBITION OF ATL CELL PROLIFERATION
Protocol: as §3, §1
as §2, with “(cpm). The results obtained from the mean of four evaluations at each concentration were compared with control values to determine percent inhibition. The following formula was used to calculate the percent inhibition: Percent Inhibition =(cpm[no drug] - cpm[drug])/(cpm[no drug])x 100 [formula] The percent inhibition obtained with rapamycin is shown in the following table.” for “(cpm).”

GP = assay: as above; details: Homo sapiens, 24 hours, read-out: PERCENT INHIBITION OF ATL CELL PROLIFERATION
Protocol: as §3, §1
as §2, with “(cpm). The results obtained from the mean of four evaluations at each concentration were compared with control values to determine percent inhibition. The following formula was used to calculate the percent inhibition: Percent Inhibition =(cpm[no drug] - cpm[drug])/(cpm[no drug])x 100 [formula] The percent inhibition obtained with rapamycin is shown in the following table.” for “(cpm).”

31008 = assay: as above; details: Homo sapiens, 24 hours, read-out: PERCENT INHIBITION OF ATL CELL PROLIFERATION
Protocol: as §3, §1
as §2, with “(cpm). The results obtained from the mean of four evaluations at each concentration were compared with control values to determine percent inhibition. The following formula was used to calculate the percent inhibition: Percent Inhibition =(cpm[no drug] - cpm[drug])/(cpm[no drug])x 100 [formula] The percent inhibition obtained with rapamycin is shown in the following table.” for “(cpm).”

BL = assay: as above; details: Homo sapiens, 24 hours, read-out: PERCENT INHIBITION OF ATL CELL PROLIFERATION
Protocol: as §3, §1
as §2, with “(cpm). The results obtained from the mean of four evaluations at each concentration were compared with control values to determine percent inhibition. The following formula was used to calculate the percent inhibition: Percent Inhibition =(cpm[no drug] - cpm[drug])/(cpm[no drug])x 100 [formula] The percent inhibition obtained with rapamycin is shown in the following table.” for “(cpm).”

31016 = assay: as above; details: Homo sapiens, 24 hours, read-out: PERCENT INHIBITION OF ATL CELL PROLIFERATION
Protocol: as §3, §1
as §2, with “(cpm). The results obtained from the mean of four evaluations at each concentration were compared with control values to determine percent inhibition. The following formula was used to calculate the percent inhibition: Percent Inhibition =(cpm[no drug] - cpm[drug])/(cpm[no drug])x 100 [formula] The percent inhibition obtained with rapamycin is shown in the following table.” for “(cpm).”

ATL1K = assay: as above; details: Homo sapiens, 24 hours, read-out: PERCENT INHIBITION OF ATL CELL PROLIFERATION
Protocol: as §3, §1
as §2, with “(cpm). The results obtained from the mean of four evaluations at each concentration were compared with control values to determine percent inhibition. The following formula was used to calculate the percent inhibition: Percent Inhibition =(cpm[no drug] - cpm[drug])/(cpm[no drug])x 100 [formula] The percent inhibition obtained with rapamycin is shown in the following table.” for “(cpm).”

CO[C@H]1C[C@@H]2CC[C@@H](C)[C@@](O)(O2)C(=O)C(=O)N2CCCC[C@H]2C(=O)O[C@H]([C@H](C)C[C@@H]2CC[C@@H](O)[C@H](OC)C2)CC(=O)[C@H](C)/C=C(\C)[C@@H](O)[C@@H](OC)C(=O)[C@H](C)C[C@H](C)/C=C/C=C/C=C/1C [Rapamycin]
inhibition at 1 pM (31009; Rapamycin Concentration 1 pM): 59% | inhibition at 10 pM (31009; Rapamycin Concentration 10 pM): 47% | inhibition at 0.0001 µM (31009; Rapamycin Concentration 100 pM): 61% | inhibition at 0.001 µM (31009; Rapamycin Concentration 1 nM): 68% | inhibition at 0.01 µM (31009; Rapamycin Concentration 10 nM): 67% | inhibition at 0.1 µM (31009; Rapamycin Concentration 100 nM): 70% | inhibition at 1 µM (31009; Rapamycin Concentration 1 µM): 71% | inhibition at 100 fM (31009; Rapamycin Concentration 100 fM): 60% | inhibition at 1 pM (ATL5S; Rapamycin Concentration 1 pM): 14% | inhibition at 10 pM (ATL5S; Rapamycin Concentration 10 pM): 38% | inhibition at 0.0001 µM (ATL5S; Rapamycin Concentration 100 pM): 47% | inhibition at 0.001 µM (ATL5S; Rapamycin Concentration 1 nM): 48% | inhibition at 0.01 µM (ATL5S; Rapamycin Concentration 10 nM): 49% | inhibition at 0.1 µM (ATL5S; Rapamycin Concentration 100 nM): 58% | inhibition at 1 µM (ATL5S; Rapamycin Concentration 1 µM): 59% | inhibition at 100 fM (ATL5S; Rapamycin Concentration 100 fM): 36% | inhibition at 0.001 µM [1]: 50% | inhibition at 1 pM (ATL3I; Rapamycin Concentration 1 pM): 11% | inhibition at 10 pM (ATL3I; Rapamycin Concentration 10 pM): 6% | inhibition at 0.0001 µM (ATL3I; Rapamycin Concentration 100 pM): 11% | inhibition at 0.001 µM (ATL3I; Rapamycin Concentration 1 nM): 18% | inhibition at 0.01 µM (ATL3I; Rapamycin Concentration 10 nM): 15% | inhibition at 0.1 µM (ATL3I; Rapamycin Concentration 100 nM): 17% | inhibition at 1 µM (ATL3I; Rapamycin Concentration 1 µM): 28% | inhibition at 100 fM (ATL3I; Rapamycin Concentration 100 fM): 7% | inhibition at 1 pM (ATEGG; Rapamycin Concentration 1 pM): 48% | inhibition at 10 pM (ATEGG; Rapamycin Concentration 10 pM): 44% | inhibition at 0.0001 µM (ATEGG; Rapamycin Concentration 100 pM): 49% | inhibition at 0.001 µM (ATEGG; Rapamycin Concentration 1 nM): 53% | inhibition at 0.01 µM (ATEGG; Rapamycin Concentration 10 nM): 45% | inhibition at 0.1 µM (ATEGG; Rapamycin Concentration 100 nM): 60% | inhibition at 1 µM (ATEGG; Rapamycin Concentration 1 µM): 58% | inhibition at 100 fM (ATEGG; Rapamycin Concentration 100 fM): 44% | inhibition at 1 pM (MALN; Rapamycin Concentration 1 pM): 36% | inhibition at 10 pM (MALN; Rapamycin Concentration 10 pM): 26% | inhibition at 0.0001 µM (MALN; Rapamycin Concentration 100 pM): 37% | inhibition at 0.001 µM (MALN; Rapamycin Concentration 1 nM): 43% | inhibition at 0.01 µM (MALN; Rapamycin Concentration 10 nM): 41% | inhibition at 0.1 µM (MALN; Rapamycin Concentration 100 nM): 54% | inhibition at 1 µM (MALN; Rapamycin Concentration 1 µM): 55% | inhibition at 100 fM (MALN; Rapamycin Concentration 100 fM): 36% | inhibition at 1 pM (GP; Rapamycin Concentration 1 pM): 20% | inhibition at 10 pM (GP; Rapamycin Concentration 10 pM): 14% | inhibition at 0.0001 µM (GP; Rapamycin Concentration 100 pM): 39% | inhibition at 0.001 µM (GP; Rapamycin Concentration 1 nM): 42% | inhibition at 0.01 µM (GP; Rapamycin Concentration 10 nM): 46% | inhibition at 0.1 µM (GP; Rapamycin Concentration 100 nM): 46% | inhibition at 1 µM (GP; Rapamycin Concentration 1 µM): 54% | inhibition at 100 fM (GP; Rapamycin Concentration 100 fM): 23% | inhibition at 1 pM (31008; Rapamycin Concentration 1 pM): 30% | inhibition at 10 pM (31008; Rapamycin Concentration 10 pM): 31% | inhibition at 0.0001 µM (31008; Rapamycin Concentration 100 pM): 45% | inhibition at 0.001 µM (31008; Rapamycin Concentration 1 nM): 54% | inhibition at 0.01 µM (31008; Rapamycin Concentration 10 nM): 58% | inhibition at 0.1 µM (31008; Rapamycin Concentration 100 nM): 68% | inhibition at 1 µM (31008; Rapamycin Concentration 1 µM): 69% | inhibition at 100 fM (31008; Rapamycin Concentration 100 fM): 29% | inhibition at 1 pM (BL; Rapamycin Concentration 1 pM): 56% | inhibition at 10 pM (BL; Rapamycin Concentration 10 pM): 55% | inhibition at 0.0001 µM (BL; Rapamycin Concentration 100 pM): 65% | inhibition at 0.001 µM (BL; Rapamycin Concentration 1 nM): 73% | inhibition at 0.01 µM (BL; Rapamycin Concentration 10 nM): 76% | inhibition at 0.1 µM (BL; Rapamycin Concentration 100 nM): 79% | inhibition at 1 µM (BL; Rapamycin Concentration 1 µM): 80% | inhibition at 100 fM (BL; Rapamycin Concentration 100 fM): 51% | inhibition at 1 pM (31016; Rapamycin Concentration 1 pM): 50% | inhibition at 10 pM (31016; Rapamycin Concentration 10 pM): 47% | inhibition at 0.0001 µM (31016; Rapamycin Concentration 100 pM): 49% | inhibition at 0.001 µM (31016; Rapamycin Concentration 1 nM): 48% | inhibition at 0.01 µM (31016; Rapamycin Concentration 10 nM): 49% | inhibition at 0.1 µM (31016; Rapamycin Concentration 100 nM): 56% | inhibition at 1 µM (31016; Rapamycin Concentration 1 µM): 59% | inhibition at 100 fM (31016; Rapamycin Concentration 100 fM): 44% | inhibition at 1 pM (ATL1K; Rapamycin Concentration 1 pM): 15% | inhibition at 10 pM (ATL1K; Rapamycin Concentration 10 pM): 12% | inhibition at 0.0001 µM (ATL1K; Rapamycin Concentration 100 pM): 23% | inhibition at 0.001 µM (ATL1K; Rapamycin Concentration 1 nM): 26% | inhibition at 0.01 µM (ATL1K; Rapamycin Concentration 10 nM): 18% | inhibition at 0.1 µM (ATL1K; Rapamycin Concentration 100 nM): 32% | inhibition at 1 µM (ATL1K; Rapamycin Concentration 1 µM): 19% | inhibition at 100 fM (ATL1K; Rapamycin Concentration 100 fM): 15%

Reference: patent EP0525960B1, “Use of rapamycin for the treatment of adult T-cell leukemia/lymphoma” (AMERICAN HOME PRODUCTS CORPORATION, priority 1991, dated 1993)
